Assay results reported in US20120172344A1, “INSULIN-PRODUCING CELL INDUCER, GLUCOSE INTAKE ENHANCER, AND THERAPEUTIC AGENT FOR DIABETES OR DIABETES COMPLICATIONS” (KYUSHU UNIVERSITY, NATIONAL UNIVERSITY CORPORATION, priority 2009, published 2012).

Assays:
[1] = system: Tg23 mice (ICERIγ transgenic diabetes model mice); assay: Experimental Example 1: effect of estradiol administration on blood glucose and insulin-producing cells in diabetes model mice; type: in vivo, mouse
Method: (§1) Blood glucose levels were measured by an enzyme-electrode method with ONE TOUCH UltraVue (Johnson & Johnson K.K.) on whole blood taken from tail veins of subject animals.
Pancreases were fixed in 10% formalin, embedded in paraffin, and sliced into sections having a thickness of 2 μm. The sections were immunostained with overnight incubation at 4° C. in dilution solutions containing various primary antibodies described below.
Primary antibodies: Anti-insulin antibody (dilution rate 1:500; DAKO), anti-glucagon antibody (dilution rate 1:500; Linco Research Inc.), anti-DBA antibody (dilution rate 1:300; Vector Laboratories), anti-Pdx-1 antibody (dilution rate 1:1000; kindly provided by Chris V. E. Wright, Vanderbilt University), anti-collagen type IV antibody (dilution rate 1:250; PROGEN Biotechnik), and anti-Glut 4 antibody (dilution rate 1:1000; Chemicon).
The primary antibodies were detected by immunofluorescence labeling using secondary antibodies conjugated with Alexa 488 or Alexa 568 (1:200; Molecular Probes); third antibody conjugated with biotin-labeled secondary antibodies and streptavidin Alexa 488 or Alexa 568 (1:800; Vector Laboratories); or by an immunoperoxidase staining method using biotin-labeled secondary antibodies. Staining was visualized with diaminobenzidine. The sections were counterstained with hematoxylin. Images were captured on a BZ9000 microscope (Keyence), or in the confocal mode on an LSM 510 META confocal microscope (Carl Zeiss). Immunofluorescence intensity was measured in random fields (n=30/section) using LSM Zeiss software, and the result was expressed as average pixel intensity.
ICERIγ transgenic mice (male) were generated from a pure line C57BL/6J (Japan SLC, Inc.) in accordance with the method described in Example 1 of Patent Literature 1 (WO2004/072282). […]
Tg23 mice (11 weeks of age) were divided into two groups: an estradiol administration group (n=24), and a control group (n=57). […] Then, body weight and blood glucose levels of the Tg mice and wild-type mice (WT) (n=81) were monitored every week, and the mice were dissected after 43 weeks. […]

Tg23 mice = assay: Experimental Example 4: blood glucose, blood parameters, food consumption and oral glucose tolerance test; type: in vivo, mouse; settings: for blood glucose level: Tg23 mice 11 weeks of age
Method: as §1
Immediately before collecting organs, blood parameters were measured using various methods and measurement kits described below in blood collected from the hearts of animals anesthetized with nembutal.
(c) Blood urea nitrogen (BUN): Urease UV method,
(d) Aspartate aminotransferase (AST) and alanine aminotransferase (ALT): JSCC standardization method,
(e) Serum insulin concentration: Enzyme-linked immunosorbent assay kit (Morinaga Institute of Biological Science),
(f) Serum glucagon concentration: YK142 Mouse […] EIA kit (Yanaihara Institute Inc.),
(g) Total serum cholesterol level: Enzymatic assay reagent (Wako Pure Chemical Industries),
After a 16-hour fast, mice were administered with glucose (1 g/kg of body weight) by gavage. Blood samples were collected from the tail vein at 0, 15, 30, 60, 90, and 120 minutes after the oral administration, and blood glucose levels were measured. In addition, blood samples were collected from the tail vein in a similar manner at 0, 15, and 30 minutes after the oral administration, and serum insulin concentrations were measured.
Subject mice were individually housed in metabolic cages for four days to assess food consumption (g/24 h) and water consumption (ml/24 h). During measurement, food and water were supplied to the mice ad libitum. Measurements were repeated three times for each group.
Tg23 mice (11 weeks of age) were divided into four groups (each group: n=4 to 10): an estradiol administration group (E only group), a testectomy group (Tx only group), a testectomy-and-estradiol administration group (Tx+E group), and a control group (Tg group). For E only group, sham surgery of testectomy (Tx) was performed, and a single pellet of 17β-estradiol (E) was subcutaneously administered at the nape of the neck. […] For Tx+E group, testectomy was performed, and a single pellet of 17β-estradiol was subcutaneously administered at the nape of the neck.
Then, blood glucose levels (mg/dl) were measured every week for E only group, Tx only group, Tx+E group, and Tg group, and wild-type mice (WT). In addition, measurements were performed with Tx+E group, Tg group, and wild-type mice (WT), for serum insulin concentrations (pg/mL), serum glucagon concentrations (pg/mL), blood urea nitrogen (BUN) concentrations (mg/dL), total serum cholesterol levels ([…]), aspartate aminotransferase (AST)/alanine aminotransferase (ALT), and food consumption per day (g/day). Furthermore, oral glucose tolerance test was performed, and changes in blood glucose level and serum insulin concentration over time were measured.

[2] = Tx+E mice, glucose 1 g/kg by gavage after 16-hour fast

SMILES: C[C@]12CC[C@@H]3c4ccc(O)cc4CC[C@H]3[C@@H]1CC[C@@H]2O [estradiol, 17β-estradiol]
- blood glucose levels ([1]; Tg23 mice 11 weeks of age, testectomy (Tx) + single 17β-estradiol pellet s.c. (0.72 mg/pellet, 90-day release), vs wild-type mice): lowered to the same levels of normal mice
- persistence of lowered blood glucose levels ([1]; Tx+E group, Tg23 mice): maintained until death
- insulin-producing cells in pancreatic duct epithelium cells of the pancreas ([1]; Tx+E group, anti-insulin immunostaining, 1 week after estradiol administration): induced
- blood glucose level (Tg23 mice; E only group (sham surgery + 17β-estradiol pellet s.c.)): effective for reducing blood glucose level
- blood glucose level (Tg23 mice; Tx+E group (testectomy + 17β-estradiol pellet s.c.)): effective for reducing blood glucose level
- AST/ALT (Tg23 mice; Tx+E mice): returned to normal
- blood urea nitrogen (BUN) (Tg23 mice; Tx+E mice): returned to normal
- food consumption per day (Tg23 mice; Tx+E mice): returned to normal
- serum glucagon (Tg23 mice; Tx+E mice): returned to normal
- serum insulin level (Tg23 mice; Tx+E mice): largely increased
- total serum cholesterol (Tg23 mice; Tx+E mice): returned to normal
- blood glucose level in oral glucose tolerance test (Tg23 mice; [2]): returned to basal level after a time point of 180 minutes
- insulin secretion in oral glucose tolerance test (Tg23 mice; [2]): increased
